Results taken from patent US8383629B2, “Inhibitors of 11β-hydroxysteroid dehydrogenase type 1” (Vitae Pharmaceuticals, Inc., priority 2008, dated 2013).

Biological target: T1, human 11β-HSD1 (Homo sapiens, UniProt P28845)
T1 construct: expressed in transfected cells; host or cells: CHO cells (microsomes)
Assay: Inhibition of microsomal preparation of 11β-HSD1 (SPA, Biological Test Example 1)
Type: biochemical
Conditions: for inhibition at 0.1 µM: 100 nM; for inhibition at 0.111 µM: 111 nM; for IC50: microsomes from CHO cells overexpressing human 11β-HSD1, read-out: IC50 Range
Procedure: The inhibition of microsomal preparation of 11β-HSD1 by compounds of the invention was measured essentially as previously described (K. Solly, S. S. Mundt, H. J. Zokian, G. J. Ding, A. Hermanowski-Vosatka, B. Strulovici, and W. Zheng, High-Throughput Screening of 11-Beta-Hydroxysteroid Dehydrogenase Type 1 in Scintillation Proximity Assay Format. Assay Drug Dev Technol 3 (2005) 377-384). All reactions were carried out at rt in 96 well clear flexible PET Microbeta plates (PerkinElmer). The assay begins by dispensing 49 μl of substrate solution (50 mM HEPES, pH 7.4, 100 mM KCl, 5 mM NaCl, 2 mM MgCl2, 2 mM NADPH and 160 nM [^3H]cortisone (1 Ci/mmol)) and mixing in 1 μL of the test compounds in DMSO previously diluted in half-log increments (8 points) starting at 0.1 mM. After a 10 minute pre-incubation, 50 μL of enzyme solution containing microsomes isolated from CHO cells overexpressing human 11β-HSD1 (10-20 μg/ml of total protein) was added, and the plates were incubated for 90 minutes at rt. The reaction was stopped by adding 50 μl of the SPA beads suspension containing 10 μM 18β-glycyrrhetinic acid, 5 mg/ml protein A coated YSi SPA beads (GE Healthcare) and 3.3 μg/ml of anti-cortisol antibody (East Coast Biologics) in Superblock buffer (Bio-Rad). The plates were shaken for 120 minutes at rt, and the SPA signal corresponding to [^3H]cortisol was measured on a Microbeta plate reader.

T1 sequence (P28845 whole entry): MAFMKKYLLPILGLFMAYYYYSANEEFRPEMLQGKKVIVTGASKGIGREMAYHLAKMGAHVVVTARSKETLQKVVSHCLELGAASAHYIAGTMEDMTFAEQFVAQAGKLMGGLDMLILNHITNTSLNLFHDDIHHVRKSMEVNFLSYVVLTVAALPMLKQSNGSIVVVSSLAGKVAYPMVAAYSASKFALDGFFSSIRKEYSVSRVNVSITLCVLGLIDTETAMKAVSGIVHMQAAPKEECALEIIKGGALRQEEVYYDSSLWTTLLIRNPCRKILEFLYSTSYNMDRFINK

inhibition at 0.1 µM [%] | inhibition at 0.111 µM [%] | IC50 [nM] | SMILES
91.7 | 97.4 | < 100 | O=C(O)CC1CC2(CCN(C(=O)/C=C/c3ccccc3C(F)(F)F)CC2)c2c(Br)cccc21 (racemic) [EXAMPLE 2, (±)-(E)-2-(7-bromo-1′-(3-(2-(trifluoromethyl)phenyl)acryloyl)-2,3-dihydrospiro[indene-1,4′-piperidine]-3-yl)acetic acid]
 | 97.6 | < 100 | O=C(O)CC1CC2(CCN(C(=O)CCc3ccccc3C(F)(F)F)CC2)c2c(Br)cccc21 (single isomer, unassigned) [EXAMPLE 70.1]
 | 52.2 | < 100 | O=C(O)CC1CC2(CCN(C(=O)CCc3ccc(Cl)cc3Cl)CC2)c2c(Cl)cccc21 (stereo not shown) [EXAMPLE 75, 2-(7-chloro-1′-(3-(2,4-dichlorophenyl)propanoyl)-2,3-dihydrospiro[indene-1,4′-piperidine]-3-yl)acetic acid]
 | 95.3 | < 100 | CS(=O)(=O)N1Cc2ccccc2C2(CCN(C(=O)/C=C/c3ccccc3C(F)(F)F)CC2)C1 [EXAMPLE 22, (E)-1-(2-(methylsulfonyl)-2,3-dihydro-1H-spiro[isoquinoline-4,4′-piperidine]-1′-yl)-3-(2-(trifluoromethyl)phenyl)prop-2-en-1-one]
100 |  | < 100 | O=C(CCc1ccccc1C(F)(F)F)N1CCC2(CC1)C(=O)Nc1ccccc12 [EXAMPLE 67, 1′-(3-(2-(trifluoromethyl)phenyl)propanoyl)spiro[indoline-3,4′-piperidin]-2-one]
 | 52.4 | 100 to 1000 | Cc1ccccc1CNC(=O)N1CCC2(CC1)CC(CC(=O)N1CCNCC1)c1cccc(Br)c12 (stereo not shown) [EXAMPLE 90, 7-bromo-N-(2-methylbenzyl)-3-(2-oxo-2-(piperazin-1-yl)ethyl)-2,3-dihydrospiro[indene-1,4′-piperidine]-1′-carboxamide]
 | 82.3 | < 100 | CN1C(=O)c2ccccc2C12CCN(C(=O)/C=C/c1ccccc1C(F)(F)F)CC2 [EXAMPLE 24, (E)-2-methyl-1′-(3-(2-(trifluoromethyl)phenyl)acryloyl)spiro[isoindoline-1,4′-piperidin]-3-one]
 | 92.7 | < 100 | CCOC(=O)CC1CC2(CCN(C(=O)CCc3ccccc3C(F)(F)F)CC2)c2c(Br)cccc21 (stereo not shown) [EXAMPLE 56, Ethyl 2-(7-bromo-1′-(3-(2-(trifluoromethyl)phenyl)propanoyl)-2,3-dihydrospiro[indene-1,4′-piperidine]-3-yl)acetate]
 | 85.5 | < 100 | O=C(O)CC1CC2(CCN(C(=O)/C=C/c3ccccc3Cl)CC2)c2c(Cl)cccc21 (racemic) [EXAMPLE 8, (±)-(E)-2-(7-chloro-1′-(3-(2-chlorophenyl)acryloyl)-2,3-dihydrospiro[indene-1,4′-piperidine]-3-yl)acetic acid]
 | 83.4 | < 100 | COC(=O)c1ccc2c(c1)C1(CCN(C(=O)/C=C/c3ccccc3C(F)(F)F)CC1)C(=O)N2C [EXAMPLE 32, (E)-methyl 1-methyl-2-oxo-1′-(3-(2-(trifluoromethyl)phenyl)acryloyl)spiro[indoline-3,4′-piperidine]-5-carboxylate]
96.3 |  | < 100 | O=C(O)CC1CC2(CCN(C(=O)/C=C/c3ccccc3C(F)(F)F)CC2)c2c(Cl)cccc21 (racemic) [EXAMPLE 3, (±)-(E)-2-(7-chloro-1′-(3-(2-(trifluoromethyl)phenyl)acryloyl)-2,3-dihydrospiro[indene-1,4′-piperidine]-3-yl)acetic acid]
 | 68.9 | 100 to 1000 | O=C1NC2(CCN(C(=O)Cc3ccccc3C(F)(F)F)CC2)c2c(Cl)cc(Cl)cc21 [EXAMPLE 50, 5,7-dichloro-1′-(2-(2-(trifluoromethyl)phenyl)acetyl)spiro[isoindoline-1,4′-piperidin]-3-one]
